Data published in ChEMBL document CHEMBL3600358, “Design and synthesis of novel substituted naphthyridines as potential c-Met kinase inhibitors based on MK-2461” (Bioorg Med Chem Lett, 2015).

How the values were obtained:
HeLa [1] = assay: Antiproliferative activity against human HeLa cells incubated for 48 hrs by MTT assay; format: functional, cell-based
A549 = assay: Antiproliferative activity against human A549 cells incubated for 48 hrs by MTT assay; format: functional, cell-based; conditions: A549, 48 h
HeLa [2] = assay: Effect on total c-Met protein level in human HeLa cells at 1.25 to 20 uM incubated for 24 hrs by Western blot method; format: cell-based

Row | Structure (SMILES) | IC50 (HeLa [1]) [µM] | IC50 (A549) [µM] | Activity (HeLa [2])
1 | CC(=O)Nc1ccc2ncc(-c3cnn(C)c3)cc2n1 | > 50 | > 50 | 
2 | Cn1cc(-c2cnc3ccc(NS(=O)(=O)c4cccs4)nc3c2)cn1 | 38.4 | 39.5 | 
3 | Cn1cc(-c2cnc3ccc(NC(=O)C4CC4)nc3c2)cn1 | > 50 | > 50 | 
4 | Cn1cc(-c2cnc3ccnc(NS(=O)(=O)c4cccs4)c3c2)cn1 | 17.4 | 9.4 | 
5 | Cn1cc(-c2cnc3ccnc(NC(=O)C4CC4)c3c2)cn1 | > 50 | > 50 | 
6 | COc1ccc(CNc2nccc3ncc(-c4cnn(C)c4)cc23)cc1 | 42.2 | > 50 | 
7 | CCNc1ccc2ncc(-c3cnn(C)c3)cc2n1 | > 50 | > 50 | 
8 | Cn1cc(-c2cnc3ccc(NCC4CC4)nc3c2)cn1 | > 50 | > 50 | 
9 | Cn1cc(-c2cnc3ccc(NS(=O)(=O)c4ccc(Cl)cc4Cl)nc3c2)cn1 | > 50 | > 50 | 
10 | Cn1cc(-c2cnc3ccnc(NCC4CC4)c3c2)cn1 | 7.4 | 8.9 | 
11 | Cc1ccc(S(=O)(=O)Nc2ccc3ncc(-c4cnn(C)c4)cc3n2)cc1 | > 50 | 45.5 | 
12 | CCNc1nccc2ncc(-c3cnn(C)c3)cc12 | > 50 | 40.7 | 
13 | Cn1cc(-c2cnc3ccnc(NCc4ccc(F)cc4)c3c2)cn1 | 9.2 | 5.2 | Non-toxic
14 | Cn1cc(-c2cnc3ccnc(N)c3c2)cn1 | 40.8 | 33.4 | 

Second part, led by results:

Row | IC50 (HeLa [1]) [µM] | IC50 (A549) [µM] | Structure (SMILES) | Activity (HeLa [2])
15 | > 50 | > 50 | Cn1cc(-c2cnc3ccc(N)nc3c2)cn1 | 
16 | > 50 | > 50 | COc1ccc(C(=O)Nc2nccc3ncc(-c4cnn(C)c4)cc23)cc1 | 
17 | > 50 | > 50 | Cn1cc(-c2cnc3ccnc(NC(=O)c4ccc(F)cc4)c3c2)cn1 | 
18 | > 50 | > 50 | Cn1cc(-c2cnc3ccc(NS(=O)(=O)c4ccc(C(F)(F)F)cc4)nc3c2)cn1 | 
19 | > 50 | > 50 | CC(=O)Nc1nccc2ncc(-c3cnn(C)c3)cc12 | 
20 | > 50 | > 50 | Cn1cc(-c2cnc3ccc(NC(=O)c4ccc(F)cc4)nc3c2)cn1 | 
21 | 4.9 | 6.4 | COc1ccc(C(=O)Nc2ccc3ncc(-c4cnn(C)c4)cc3n2)cc1 | 
22 | > 50 | > 50 | Cn1cc(-c2cnc3ccnc(NS(=O)(=O)c4c(Cl)cccc4Cl)c3c2)cn1 | 
23 | 46.6 | > 50 | Cn1cc(-c2cnc3ccc(NCc4ccc(F)cc4)nc3c2)cn1 | 
24 | > 50 | > 50 | Cn1cc(-c2cnc3ccnc(NS(=O)(=O)c4ccc(C(F)(F)F)cc4)c3c2)cn1 | 
25 | > 50 | > 50 | COc1ccc(CNc2ccc3ncc(-c4cnn(C)c4)cc3n2)cc1 | 
26 | > 50 | > 50 | Cn1cc(-c2cnc3ccnc(NC(=O)c4cccnc4)c3c2)cn1 | 
27 | > 50 | > 50 | Cc1ccc(S(=O)(=O)Nc2nccc3ncc(-c4cnn(C)c4)cc23)cc1 | 
28 | > 50 | > 50 | Cn1cc(-c2cnc3ccc(NC(=O)c4cccnc4)nc3c2)cn1 | 
